In article PMC11873722 (Cancer Discovery, 2024):
Each block holds one compound with its values, some of them ahead of it.

Tests used:
KRAS^G12C NSCLC = conditions: patients with NSCLC with prior KRAS^G12C(OFF)-only inhibitor treatment; cited from earlier work
[1] = target: RAF1(RBD):KRAS^G12C(ON) interaction in MIA PaCa-2 cells (Homo sapiens, UniProt P01116, G12C); assay: RAS:RAF ELISA assay in MIA PaCa-2 cells; format: cell-based; conditions: 1 µmol/L
[2] = Free drug exposure in LUN055 PDX study; format: in vivo, mouse

RAF1(RBD):KRAS^G12C(ON) interaction in MIA PaCa-2 cells, sequence (P01116 1-188 isoform P01116-2 G12C): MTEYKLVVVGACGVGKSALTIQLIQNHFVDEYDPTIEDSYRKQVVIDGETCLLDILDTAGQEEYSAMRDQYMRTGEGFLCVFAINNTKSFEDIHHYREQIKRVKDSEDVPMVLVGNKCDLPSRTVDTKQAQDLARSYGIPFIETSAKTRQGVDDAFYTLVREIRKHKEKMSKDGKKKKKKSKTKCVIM

SMILES: CCn1c(-c2cccnc2[C@H](C)OC)c2c3cc(ccc31)N1CCO[C@@H](C[C@H](NC(=O)[C@H](C(C)C)N(C)C(=O)C3(F)CCN(C(=O)C#CC(C)(C)N(C)C)CC3)C(=O)N3CCC[C@H](N3)C(=O)OCC(C)(C)C2)C1 [RMC-6291]
- objective response rate (KRAS^G12C NSCLC): 50%

- time required to achieve maximal activity [1]: more than 60 minutes
SMILES: C=CC(=O)N1CCN(c2nc(OC[C@@H]3CCCN3C)nc3c(F)c(-c4nc(N)cc(C)c4C(F)(F)F)c(Cl)cc23)[C@@H](C)C1 [GDC-6036]

- free AUC0–24 hours ([2]; 100 mg/kg sotorasib): 1,563 hours × ng/mL
- free drug concentration higher compared with BBO-8520 ([2]; 100 mg/kg sotorasib vs 30 mg/kg BBO-8520): 20 fold
SMILES: C=CC(=O)N1CCN(c2nc(=O)n(-c3c(C)ccnc3C(C)C)c3nc(-c4c(O)cccc4F)c(F)cc23)[C@@H](C)C1 [Sotorasib]
